As a reminder, the IC50 is the concentration that gives 50% inhibition.

Each structure is given as a SMILES string. The source made the active and inactive calls. No cut-off for these calls is given here.

Data set [1] can be described thus: Cytotoxicity against mouse BV2 cells assessed as cell viability at 20 uM by MTT assay. It is filed as cell-based, BV-2. The following applies: read-out: Activity.
Data set [2] concerns BV-2. Briefly: Anti-neuroinflammatory activity in mouse BV2 cells assessed as inhibition of LPS-induced nitric oxide production […] by Griess assay relative to control. It is filed as functional, cell-based. (Nitrite, measured by Griess reagent, commonly stands in for NO production.)
Data set [3] relates to RAW264.7. Briefly: Cytotoxicity against mouse RAW264.7 cells assessed as decrease in cell viability at 20 uM. It is filed as cell-based. The conditions noted are these: raw264.7, 20 µM.
A short description of data set [4]: Reduction of SNP-induced nitrite accumulation at 1 to 10 uM after 180 mins by Griess assay.
Data set [5] has as its system BV-2. Briefly: Downregulation of iNOS expression in LPS-treated mouse BV2 cells at 1 to 10 uM incubated for 30 mins prior to LPS challenge measured after 6 hrs by Western blot analysis. It is filed as functional, cell-based. (In general: A western blot detects proteins with antibodies after separation by electrophoresis.)
Data set [6] relates to RAW264.7. Briefly: Anti-neuroinflammatory activity in mouse RAW264.7 cells assessed as inhibition of LPS-induced nitric oxide production. It is filed as functional, cell-based.
The target in data set [7] is T1, Nitric oxide synthase, inducible (Mus musculus) (UniProt P29477).
T1 sequence (whole entry): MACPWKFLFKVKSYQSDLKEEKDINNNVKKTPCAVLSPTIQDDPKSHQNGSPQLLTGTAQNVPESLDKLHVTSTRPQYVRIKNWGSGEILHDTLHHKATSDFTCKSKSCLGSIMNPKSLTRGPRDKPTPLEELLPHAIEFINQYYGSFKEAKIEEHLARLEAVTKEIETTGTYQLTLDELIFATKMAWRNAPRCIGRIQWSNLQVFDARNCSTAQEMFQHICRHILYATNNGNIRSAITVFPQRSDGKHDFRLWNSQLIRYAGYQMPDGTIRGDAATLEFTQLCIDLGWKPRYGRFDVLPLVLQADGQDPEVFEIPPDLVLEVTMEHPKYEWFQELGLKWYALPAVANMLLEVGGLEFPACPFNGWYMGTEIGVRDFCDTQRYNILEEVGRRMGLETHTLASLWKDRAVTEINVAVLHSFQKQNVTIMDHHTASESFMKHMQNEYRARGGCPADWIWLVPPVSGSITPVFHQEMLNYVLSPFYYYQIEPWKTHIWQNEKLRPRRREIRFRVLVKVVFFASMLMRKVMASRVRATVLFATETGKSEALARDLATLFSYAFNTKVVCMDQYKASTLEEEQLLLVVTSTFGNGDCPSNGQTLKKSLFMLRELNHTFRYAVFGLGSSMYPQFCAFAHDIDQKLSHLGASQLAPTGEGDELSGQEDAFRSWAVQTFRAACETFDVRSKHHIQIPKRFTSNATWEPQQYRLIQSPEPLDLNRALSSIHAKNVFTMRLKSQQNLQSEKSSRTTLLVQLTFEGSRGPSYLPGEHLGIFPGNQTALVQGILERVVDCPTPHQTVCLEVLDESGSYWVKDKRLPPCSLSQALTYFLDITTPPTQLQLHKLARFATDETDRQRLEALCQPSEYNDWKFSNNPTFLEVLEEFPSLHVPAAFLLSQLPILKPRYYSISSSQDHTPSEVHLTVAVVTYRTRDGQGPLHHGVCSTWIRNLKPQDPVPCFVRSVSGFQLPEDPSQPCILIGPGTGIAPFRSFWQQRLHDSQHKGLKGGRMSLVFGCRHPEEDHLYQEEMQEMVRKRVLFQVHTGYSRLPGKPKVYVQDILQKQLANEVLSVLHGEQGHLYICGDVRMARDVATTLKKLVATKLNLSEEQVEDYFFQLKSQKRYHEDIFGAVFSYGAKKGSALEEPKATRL
Briefly: Inhibition of iNOS in LPS-treated mouse BV2 cells assessed as decrease in nitrite level at 1 to 5 uM after 12 hrs by Griess assay. It is filed as cell-based. The conditions noted are these: BV-2.

Data set [8] in a line: Reduction of SNP-induced nitrite accumulation at 5 to 10 uM after 180 mins by Griess assay.
Data set [9] has as its system BV-2. Briefly: Downregulation of iNOS expression in LPS-treated mouse BV2 cells at 10 uM incubated for 30 mins prior to LPS challenge measured after 6 hrs by Western blot analysis. It is filed as functional, cell-based.
Data set [10] addresses T1, Nitric oxide synthase, inducible (Mus musculus). Briefly: Inhibition of iNOS in LPS-treated mouse BV2 cells assessed as decrease in nitrite level at 1 to 10 uM after 12 hrs by Griess assay. It is filed as cell-based. The conditions noted are these: BV-2.

As for `O=C(/C=C/c1ccc(O)c(O)c1)O[C@@H]1C[C@](OC(=O)/C=C/c2ccc(O)c(O)c2)(C(=O)O)C[C@@H](O)[C@H]1O` [1,5-O-TRANS-DICAFFEOYLQUINIC ACID], the viability at 20 µM in data set [1] is 93.7%. Also, the IC50 in the data set with BV-2 [2] was found to be 22.6 µM.

With `COC(=O)[C@]1(O)C[C@@H](O)[C@@H](OC(=O)/C=C/c2ccc(O)c(O)c2)[C@H](OC(=O)/C=C/c2ccc(O)c(O)c2)C1`, the viability at 20 µM in data set [1] was 92.2%. Also, the IC50 with BV-2 [2] stood at 24.6 µM.

`COC(=O)[C@]1(O)C[C@@H](O)[C@@H](O)[C@H](OC(=O)/C=C\c2ccc(O)cc2)C1`: the viability at 20 µM in [1] was 109%. Moreover, the IC50 in the data set with BV-2 [2] was 86.4 µM.

As for `COC(=O)[C@]1(O)C[C@@H](O)[C@@H](O)[C@H](OC(=O)/C=C/c2ccc(O)c(O)c2)C1` [CHLOROGENIC ACID METHYL ESTER], the viability at 20 µM in [1] worked out at 95.3%. Further, the IC50 in the data set on BV-2 [2] came out at 12.1 µM.

`O=C(/C=C/c1ccc(O)cc1)O[C@@H]1C[C@](OC(=O)/C=C/c2ccc(O)c(O)c2)(C(=O)O)C[C@@H](O)[C@H]1O`: in [1], the viability at 20 µM was found to be 94.3%. Moreover, the IC50 in the data set with BV-2 [2] came to 23.5 µM.

For the compound `COC(=O)[C@@]1(O)C[C@@H](O)[C@H](OC(=O)/C=C/c2ccc(O)c(O)c2)[C@H](OC(=O)/C=C/c2ccc(O)c(O)c2)C1` [3,4-O-TRANS-CAFFEOYLQUINIC ACID METHYL ESTER], in [1], the viability at 20 µM was 96.8%. Besides, the IC50 in the data set with BV-2 [2] worked out at 20.2 µM.

For the compound `COC(=O)[C@]1(O)C[C@@H](OC(=O)/C=C/c2ccc(O)c(O)c2)[C@@H](O)[C@H](OC(=O)/C=C/c2ccc(O)c(O)c2)C1`, the Activity result in the data set on RAW264.7 [3] is “Non-toxic”. Also, in [1], the viability at 20 µM is 91.1%. For the same compound, the IC50 with BV-2 [2] was 9.04 µM; with RAW264.7 [6], 42.9 µM. In addition, the outcome in data set [4] was Active. Further, the result in the data set with BV-2 [5] was inactive. In [7], the inhibition result is “Active”.

For `CNC(=N)NCCC[C@H](N)C(=O)O` [TILARGININE], the viability at 20 µM in [1] was determined as 103%.

Turning to `COC(=O)[C@]1(O)C[C@@H](O)[C@@H](OC(=O)/C=C/c2ccc(O)cc2)[C@H](O)C1`, the viability at 20 µM in data set [1] worked out at 108%. Besides, the IC50 in the data set with BV-2 [2] turned out to be 45 µM.

In the case of `CO[C@@H](CC(=O)O[C@@]1(C(=O)O)C[C@@H](O)[C@@H](O)[C@H](OC(=O)/C=C/c2ccc(O)c(O)c2)C1)c1ccc(O)c(O)c1`, the viability at 20 µM in data set [1] came out at 90.9%. The IC50 in the data set on BV-2 [2] amounted to 12.5 µM.

Regarding `CO[C@@H](CC(=O)O[C@@H]1C[C@](OC(=O)/C=C/c2ccc(O)c(O)c2)(C(=O)O)C[C@@H](O)[C@H]1O)c1ccc(O)c(O)c1`, the Activity entry in the data set with RAW264.7 [3] is listed as “Non-toxic”. Moreover, in data set [1], the viability at 20 µM was 93.2%. For the same compound, the IC50 in the data set on BV-2 [2] turned out to be 4.66 µM; in the data set with RAW264.7 [6], 175 µM. For the same compound, the result (in data set [8]; with BV-2 [9]) was Active. Besides, the inhibition entry in data set [10] was “Active”.

In the case of `COC(=O)[C@]1(O)C[C@@H](O)[C@@H](O)[C@H](OC(=O)/C=C\c2ccc(O)c(O)c2)C1`, the viability at 20 µM in [1] turned out to be 90.6%. In the data set with BV-2 [2], the IC50 worked out at 17 µM.

`O=C(/C=C\c1ccc(O)cc1)O[C@@H]1C[C@](OC(=O)/C=C\c2ccc(O)cc2)(C(=O)O)C[C@@H](O)[C@H]1O`: in data set [1], the viability at 20 µM is 96%. In addition, in the data set on BV-2 [2], the IC50 is 52.8 µM.

Take `COC(=O)[C@]1(O)C[C@@H](O)[C@@H](OC(=O)/C=C/c2ccc(O)c(O)c2)[C@H](O)C1`: in [1], the viability at 20 µM amounted to 92.6%. In addition, the IC50 with BV-2 [2] worked out at 16.6 µM.

Turning to `COC(=O)[C@]1(O)C[C@@H](O)[C@@H](O)[C@H](OC(=O)/C=C/c2ccc(O)cc2)C1`, the viability at 20 µM in data set [1] was found to be 109%. Also, in the data set with BV-2 [2], the IC50 amounted to 82 µM.

With `O=C(/C=C\c1ccc(O)cc1)O[C@@H]1C[C@](OC(=O)/C=C/c2ccc(O)cc2)(C(=O)O)C[C@@H](O)[C@H]1O`, in data set [1], the viability at 20 µM stood at 98.1%. The IC50 with BV-2 [2] turned out to be 59.8 µM.

Source of the values: ChEMBL document CHEMBL2346545, “Quinic acid derivatives from Pimpinella brachycarpa exert anti-neuroinflammatory activity in lipopolysaccharide-induced microglia” (Bioorg Med Chem Lett, 2013).
